Source: patent publication US12116343B2, “Inhibitors of APOL1 and methods of using same” (Vertex Pharmaceuticals Incorporated, priority 2020, dated 2024)
Like-named read-outs stand apart in the source and are kept apart here.

Molecular target: T1, G1 APOL1 (Homo sapiens, UniProt O14791, I384M/S342G)
T1 construct: expressed in transfected cells
T1 sequence (O14791 28-398 S342G/I384M): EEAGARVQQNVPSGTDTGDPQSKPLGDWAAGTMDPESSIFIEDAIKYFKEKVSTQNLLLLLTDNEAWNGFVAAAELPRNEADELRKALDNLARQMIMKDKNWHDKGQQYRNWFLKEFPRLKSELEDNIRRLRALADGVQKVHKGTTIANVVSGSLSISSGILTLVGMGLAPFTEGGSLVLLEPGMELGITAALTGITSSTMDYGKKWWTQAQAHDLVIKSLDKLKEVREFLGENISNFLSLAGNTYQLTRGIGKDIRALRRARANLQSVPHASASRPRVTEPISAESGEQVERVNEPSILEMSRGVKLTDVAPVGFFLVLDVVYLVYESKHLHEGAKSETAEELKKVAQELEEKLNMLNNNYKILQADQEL
Experiment: Acute APOL1 Thallium Assay with inducible stable clones of HEK 293 cells
Assay type: cell-based
Method in brief: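 Readout: Tl+-triggered fluorescence, FLIPR, reflecting potassium flux through APOL1 pores after cells take up an AM-ester thallium indicator. Cells: HEK T-Rex stable clone G1 DC3.25, APOL1 G1 induced by tetracycline, seeded 26000 per well.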

[1] = HEK 293 T-Rex cells expressing G1 APOL1, read-out: Thallium Assay (IC50)
[2] = Table 24, Compounds 287 to 465, read-out: Thallium Assay (IC50)

SMILES: CC(C)(NC(=O)[C@H]1C[C@H](c2c(-c3ccc(F)cc3)[nH]c3c(F)cc(F)cc32)C1)C(=O)N1CCOCC1 [Compound 66]
- IC50 [1]: > 1 µM

SMILES: NC(=O)CNC(=O)[C@H]1C[C@H](c2c(-c3ccc(F)cc3)[nH]c3c(F)cc(F)cc32)C1 [Compound 1, N-(2-amino-2-oxo-ethyl)-3-[5,7-difluoro-2-(4-fluorophenyl)-1H-indol-3-yl]cyclobutanecarboxamide]
- IC50 [1]: < 0.25 µM

SMILES: CC(N)(C(=O)NC(=O)[C@H]1C[C@H](c2c(-c3ccc(F)cc3)[nH]c3c(F)cc(F)cc32)C1)C(F)(F)F (stereo partly shown) [Compound 60]
- IC50 [1]: > 1 µM

SMILES: CC(NC(=O)[C@H]1C[C@H](c2c(-c3ccc(F)cc3)[nH]c3c(F)cc(F)cc32)C1)C(N)=O (mixture of isomers) [Compound 68]
- IC50 [1]: 0.25 to 1 µM

SMILES: NC(=O)[C@@H]1CCCN1C(=O)[C@H]1C[C@H](c2c(-c3ccc(F)cc3)[nH]c3c(F)cc(F)cc32)C1 [Compound 88]
- IC50 [1]: > 1 µM

SMILES: C[C@H](NC(=O)[C@H]1C[C@H](c2c(-c3ccc(F)cc3)[nH]c3c(F)cc(F)cc32)C1)C(=O)N(C)C [Compound 65]
- IC50 [1]: 0.25 to 1 µM

SMILES: Cn1ccc(CNC(=O)[C@H]2C[C@H](c3c(-c4ccc(F)cc4)[nH]c4c(F)cc(F)cc43)C2)n1 [Compound 71]
- IC50 [1]: 0.25 to 1 µM

SMILES: CC1(O)CN(C(=O)[C@H]2C[C@H](c3c(-c4ccc(F)cc4)[nH]c4c(F)cc(F)cc43)C2)C1 [Compound 74]
- IC50 [1]: 0.25 to 1 µM

SMILES: Cn1cnc(CNC(=O)[C@H]2C[C@H](c3c(-c4ccc(F)cc4)[nH]c4c(F)cc(F)cc43)C2)c1 [Compound 48]
- IC50 [1]: < 0.25 µM

SMILES: CC(C)N1CCN(C(=O)[C@H]2C[C@H](c3c(-c4ccc(F)cc4)[nH]c4c(F)cc(F)cc43)C2)CC1=O [Compound 63]
- IC50 [1]: > 1 µM

SMILES: COCc1cc(CNC(=O)[C@H]2C[C@H](c3c(-c4ccc(F)cc4)[nH]c4c(F)cc(F)cc43)C2)n[nH]1 [Compound 72]
- IC50 [1]: > 1 µM

SMILES: NCCCNC(=O)[C@H]1C[C@H](c2c(-c3ccc(F)cc3)[nH]c3c(F)cc(F)cc32)C1 [Compound 4]
- IC50 [1]: 0.25 to 1 µM

SMILES: O=C1NCC[C@H]1NC(=O)[C@H]1C[C@H](c2c(-c3ccc(F)cc3)[nH]c3c(F)cc(F)cc32)C1 [Compound 45]
- IC50 [1]: 0.25 to 1 µM

SMILES: O=C(NCC1(O)CCCC1)[C@H]1C[C@H](c2c(-c3ccc(F)cc3)[nH]c3c(F)cc(F)cc32)C1 [Compound 69]
- IC50 [1]: > 1 µM

SMILES: CC(C)(O)C1CN(C(=O)[C@H]2C[C@H](c3c(-c4ccc(F)cc4)[nH]c4c(F)cc(F)cc43)C2)C1 [Compound 86]
- IC50 [1]: > 1 µM

SMILES: O=C(OC1CN(C(=O)[C@H]2C[C@H](c3c(-c4ccc(F)cc4)[nH]c4c(F)cc(F)cc43)C2)C1)C1CCOCC1 [Compound 85]
- IC50 [1]: 0.25 to 1 µM

SMILES: O=C(NCC1(CO)COC1)[C@H]1C[C@H](c2c(-c3ccc(F)cc3)[nH]c3c(F)cc(F)cc32)C1 [Compound 83]
- IC50 [1]: > 1 µM

SMILES: NC(=O)C1(NC(=O)[C@H]2C[C@H](c3c(-c4ccc(F)cc4)[nH]c4c(F)cc(F)cc43)C2)CC1 [Compound 56]
- IC50 [1]: 0.25 to 1 µM

SMILES: CC(NC(=O)[C@H]1C[C@H](c2c(-c3ccc(F)cc3)[nH]c3c(F)cc(F)cc32)C1)c1ccnn1C (mixture of isomers) [Compound 76]
- IC50 [1]: > 1 µM

SMILES: O=C(NCCO)[C@H]1C[C@H](c2c(-c3ccc(F)cc3)[nH]c3c(F)cc(F)cc32)C1 [Compound 46, 3-[5,7-difluoro-2-(4-fluorophenyl)-1H-indol-3-yl]-N-(2-hydroxyethyl)cyclobutanecarboxamide]
- IC50 [1]: < 0.25 µM

SMILES: CN(C)C(=O)CN(C)C(=O)[C@H]1C[C@H](c2c(-c3ccc(F)cc3)[nH]c3c(F)cc(F)cc32)C1 [Compound 62]
- IC50 [1]: 0.25 to 1 µM

SMILES: O=C([C@H]1C[C@H](c2c(-c3ccc(F)cc3)[nH]c3c(F)cc(F)cc32)C1)N(CCO)C1CC1 [Compound 52]
- IC50 [1]: 0.25 to 1 µM

SMILES: CN1CC(CNC(=O)[C@H]2C[C@H](c3c(-c4ccc(F)cc4)[nH]c4c(F)cc(F)cc43)C2)CC1=O (stereo partly shown) [Compound 70]
- IC50 [1]: > 1 µM

SMILES: NC(=O)C1CCCCN1C(=O)[C@H]1C[C@H](c2c(-c3ccc(F)cc3)[nH]c3c(F)cc(F)cc32)C1 (stereo partly shown) [Compound 92]
- IC50 [1]: > 1 µM

SMILES: CN(CCO)C(=O)[C@H]1C[C@H](c2c(-c3ccc(F)cc3)[nH]c3c(F)cc(F)cc32)C1 [Compound 79]
- IC50 [1]: < 0.25 µM

SMILES: NC(=O)CNCC1CC(c2c(-c3ccc(F)cc3)[nH]c3c(F)cc(F)cc23)C1 (stereo not shown) [Compound 433, 2-(((3-(5,7-difluoro-2-(4-fluorophenyl)-1H-indol-3-yl)cyclobutyl)methyl)amino)acetamide]
- IC50 [2]: < 0.25 µM

SMILES: O=C(NCC1(O)CCCCC1)[C@H]1C[C@H](c2c(-c3ccc(F)cc3)[nH]c3c(F)cc(F)cc32)C1 [Compound 80]
- IC50 [1]: > 1 µM

SMILES: O=C([C@H]1C[C@H](c2c(-c3ccc(F)cc3)[nH]c3c(F)cc(F)cc32)C1)N1CCC(O)(CO)CC1 [Compound 87]
- IC50 [1]: > 1 µM

SMILES: CN(C(=O)[C@H]1C[C@H](c2c(-c3ccc(F)cc3)[nH]c3c(F)cc(F)cc32)C1)C1(CO)CC1 [Compound 58]
- IC50 [1]: 0.25 to 1 µM

SMILES: CC1C[C@H](NC(=O)[C@H]2C[C@H](c3c(-c4ccc(F)cc4)[nH]c4c(F)cc(F)cc43)C2)C(=O)N1 (mixture of isomers) [Compound 84]
- IC50 [1]: > 1 µM

SMILES: CCOCC1(CNC(=O)[C@H]2C[C@H](c3c(-c4ccc(F)cc4)[nH]c4c(F)cc(F)cc43)C2)CC1 [Compound 55]
- IC50 [1]: > 1 µM

SMILES: O=C([C@H]1C[C@H](c2c(-c3ccc(F)cc3)[nH]c3c(F)cc(F)cc32)C1)N1C[C@@H](CO)OCC12CC2 [Compound 57]
- IC50 [1]: > 1 µM

SMILES: O=C(NC(CO)CF)[C@H]1C[C@H](c2c(-c3ccc(F)cc3)[nH]c3c(F)cc(F)cc32)C1 (stereo partly shown) [Compound 78]
- IC50 [1]: < 0.25 µM

SMILES: CN(CC1(CO)CC1)C(=O)[C@H]1C[C@H](c2c(-c3ccc(F)cc3)[nH]c3c(F)cc(F)cc32)C1 [Compound 49]
- IC50 [1]: > 1 µM

SMILES: O=C(CNC(=O)[C@H]1C[C@H](c2c(-c3ccc(F)cc3)[nH]c3c(F)cc(F)cc32)C1)NC1CC1 [Compound 50]
- IC50 [1]: > 1 µM

SMILES: O=C(NC1(CCO)CC1)[C@H]1C[C@H](c2c(-c3ccc(F)cc3)[nH]c3c(F)cc(F)cc32)C1 [Compound 59]
- IC50 [1]: 0.25 to 1 µM

SMILES: CC(=O)NC1CCCN(C(=O)[C@H]2C[C@H](c3c(-c4ccc(F)cc4)[nH]c4c(F)cc(F)cc43)C2)C1 (stereo partly shown) [Compound 91]
- IC50 [1]: > 1 µM

SMILES: O=C(NCC1CC(F)(F)C1)[C@H]1C[C@H](c2c(-c3ccc(F)cc3)[nH]c3c(F)cc(F)cc32)C1 [Compound 41]
- IC50 [1]: > 1 µM

SMILES: C[C@@H](NC(=O)[C@H]1C[C@H](c2c(-c3ccc(F)cc3)[nH]c3c(F)cc(F)cc32)C1)C(=O)N(C)C [Compound 61]
- IC50 [1]: > 1 µM

SMILES: CN(CC(N)=O)C(=O)[C@H]1C[C@H](c2c(-c3ccc(F)cc3)[nH]c3c(F)cc(F)cc32)C1 [Compound 51]
- IC50 [1]: 0.25 to 1 µM

SMILES: CC(NC(=O)[C@H]1C[C@H](c2c(-c3ccc(F)cc3)[nH]c3c(F)cc(F)cc32)C1)c1ccn(C)n1 (mixture of isomers) [Compound 75]
- IC50 [1]: 0.25 to 1 µM

SMILES: O=C(NC1(CO)CC1)[C@H]1C[C@H](c2c(-c3ccc(F)cc3)[nH]c3c(F)cc(F)cc32)C1 [Compound 47]
- IC50 [1]: 0.25 to 1 µM

SMILES: CC(NC(=O)[C@H]1C[C@H](c2c(-c3ccc(F)cc3)[nH]c3c(F)cc(F)cc32)C1)c1ccn[nH]1 (mixture of isomers) [Compound 81]
- IC50 [1]: 0.25 to 1 µM

SMILES: O=C1NCCC1NC(=O)[C@H]1C[C@H](c2c(-c3ccc(F)cc3)[nH]c3c(F)cc(F)cc32)C1 (stereo partly shown) [Compound 2]
- IC50 [1]: < 0.25 µM

SMILES: NCC(O)CNC(=O)[C@H]1C[C@H](c2c(-c3ccc(F)cc3)[nH]c3c(F)cc(F)cc32)C1 (stereo partly shown) [Compound 3]
- IC50 [1]: 0.25 to 1 µM

SMILES: O=C1CC(NC(=O)[C@H]2C[C@H](c3c(-c4ccc(F)cc4)[nH]c4c(F)cc(F)cc43)C2)CN1 (mixture of isomers) [Compound 44]
- IC50 [1]: > 1 µM

SMILES: COCC1(CNC(=O)[C@H]2C[C@H](c3c(-c4ccc(F)cc4)[nH]c4c(F)cc(F)cc43)C2)CC1 [Compound 53]
- IC50 [1]: > 1 µM

SMILES: NC(=O)CNC[C@H]1C[C@@H](c2c(-c3ccc(F)cc3)[nH]c3c(F)cc(F)cc32)C1 [Compound 447]
- IC50 [2]: < 0.25 µM

SMILES: NC(=O)CC1CC(c2c(-c3ccc(F)cc3)[nH]c3c(F)cc(F)cc23)C1 (stereo not shown) [Compound 455]
- IC50 [2]: < 0.25 µM

SMILES: CC(O)CN(C)C(=O)[C@H]1C[C@H](c2c(-c3ccc(F)cc3)[nH]c3c(F)cc(F)cc32)C1 (stereo partly shown) [Compound 90]
- IC50 [1]: > 1 µM

SMILES: CCNC(=O)[C@@H]1CCCN1C(=O)[C@H]1C[C@H](c2c(-c3ccc(F)cc3)[nH]c3c(F)cc(F)cc32)C1 [Compound 64]
- IC50 [1]: > 1 µM

SMILES: CN(CC(C)(C)O)C(=O)[C@H]1C[C@H](c2c(-c3ccc(F)cc3)[nH]c3c(F)cc(F)cc32)C1 [Compound 93]
- IC50 [1]: > 1 µM

SMILES: Cc1cc(CNC(=O)[C@H]2C[C@H](c3c(-c4ccc(F)cc4)[nH]c4c(F)cc(F)cc43)C2)nn1C [Compound 73]
- IC50 [1]: > 1 µM

SMILES: COCC1(NC(=O)[C@H]2C[C@H](c3c(-c4ccc(F)cc4)[nH]c4c(F)cc(F)cc43)C2)CC1 [Compound 54]
- IC50 [1]: < 0.25 µM

SMILES: O=C([C@H]1C[C@H](c2c(-c3ccc(F)cc3)[nH]c3c(F)cc(F)cc32)C1)N1CCC(O)(O)CC1 [Compound 127]
- IC50 (Thallium Assay (IC50), HEK 293 T-Rex cells expressing G1 APOL1): > 1 µM

SMILES: O=C([C@H]1C[C@H](c2c(-c3ccc(F)cc3)[nH]c3c(F)cc(F)cc32)C1)N1CCCCC1CCO (stereo partly shown) [Compound 94]
- IC50 [1]: > 1 µM

SMILES: O=C(NCC1CCOCC1)[C@H]1C[C@H](c2c(-c3ccc(F)cc3)[nH]c3c(F)cc(F)cc32)C1 [Compound 42]
- IC50 [1]: > 1 µM

SMILES: C[C@H](O)CNC(=O)[C@H]1C[C@H](c2c(-c3ccc(F)cc3)[nH]c3c(F)cc(F)cc32)C1 [Compound 82]
- IC50 [1]: 0.25 to 1 µM
